Data: the NIST ThermoML archive (doi:10.1016/j.jct.2018.09.037)
Several values for one entry are separate records, joined by “and”; a condition that tells them apart may be missing. Equal entries are not always repeated.

Assay: xn = mol fraction of the nth substance listed
Conditions: 100 kPa, Liquid, Electromagnetic levitation / mass taken directly, volume taken from sample image

[Pd] [palladium] + [Fe]
Conditions | mass density
1414 K, x1 = 0.6 | 8979 kg/m3
1437 K, x1 = 0.6 | 8950 kg/m3
1440 K, x1 = 0.8 | 9717 kg/m3
1476 K, x1 = 0.6 | 8899 kg/m3
1483 K, x1 = 0.6 | 8904 kg/m3
1483 K, x1 = 0.8 | 9676 kg/m3
1500 K, x1 = 0.4 | 8297 kg/m3
1512 K, x1 = 0.4 | 8275 kg/m3
1536 K, x1 = 0.6 | 8856 kg/m3
1543 K, x1 = 0.8 | 9619 kg/m3
1551 K, x1 = 0.6 | 8825 kg/m3
1562 K, x1 = 0.4 | 8208 kg/m3
1590 K, x1 = 0.6 | 8791 kg/m3
1598 K, x1 = 0.8 | 9769 kg/m3
1613 K, x1 = 0.6 | 8779 kg/m3
1613 K, x1 = 0.8 | 9499 kg/m3
1624 K, x1 = 0.8 | 9547 kg/m3
1625 K, x1 = 0.4 | 8150 kg/m3
1625 K, x1 = 0.8 | 9735 kg/m3
1630 K, x1 = 0.2 | 7824 kg/m3
1633 K, x1 = 0.6 | 8756 kg/m3
1651 K, x1 = 0.2 | 7615 kg/m3
1663 K, x1 = 0.6 | 8735 kg/m3
1665 K, x1 = 0.8 | 9694 kg/m3
1667 K, x1 = 0.6 | 8709 kg/m3
1668 K, x1 = 0.2 | 7805 kg/m3
1672 K, x1 = 0.8 | 9450 kg/m3
1681 K, x1 = 0.2 | 7789 kg/m3 and 7591 kg/m3
1707 K, x1 = 0.8 | 9656 kg/m3
1711 K, x1 = 0.4 | 8076 kg/m3
1713 K, x1 = 0.2 | 7775 kg/m3
1715 K, x1 = 0.6 | 8695 kg/m3
1721 K, x1 = 0.2 | 7550 kg/m3
1725 K, x1 = 0.6 | 8660 kg/m3
1742 K, x1 = 0.2 | 7739 kg/m3
1749 K, x1 = 0.8 | 9379 kg/m3
1767 K, x1 = 0.8 | 9602 kg/m3
1772 K, x1 = 0.2 | 7506 kg/m3
1789 K, x1 = 0.6 | 8633 kg/m3
1790 K, x1 = 1 | 10670 kg/m3
1795 K, x1 = 1 | 10672 kg/m3
1796 K, x1 = 1 | 10652 kg/m3
1802 K, x1 = 1 | 10686 kg/m3
1809 K, x1 = 1 | 10670 kg/m3
1820 K, x1 = 1 | 10677 kg/m3
1829 K, x1 = 0.4 | 7971 kg/m3
1831 K, x1 = 1 | 10627 kg/m3
1832 K, x1 = 0.4 | 7965 kg/m3
1832 K, x1 = 0.8 | 9536 kg/m3
1838 K, x1 = 0.2 | 7700 kg/m3
1841 K, x1 = 0.8 | 9278 kg/m3
1843 K, x1 = 1 | 10654 kg/m3
1856 K, x1 = 1 | 10601 kg/m3
1864 K, x1 = 0.2 | 7646 kg/m3
1872 K, x1 = 0.2 | 7426 kg/m3
1878 K, x1 = 1 | 10558 kg/m3
1879 K, x1 = 0.6 | 8530 kg/m3
1889 K, x1 = 0.6 | 8544 kg/m3
1889 K, x1 = 1 | 10592 kg/m3
1890 K, x1 = 1 | 10575 kg/m3
1916 K, x1 = 0.8 | 9434 kg/m3
1917 K, x1 = 1 | 10529 kg/m3
1935 K, x1 = 1 | 10478 kg/m3
1951 K, x1 = 1 | 10465 kg/m3
